Measured values from patent US20200277268A1, “PENTAFLUOROPHENYL SULFONAMIDE COMPOUNDS, COMPOSITIONS AND USES THEREOF” (DALRIADA THERAPEUTICS INC., priority 2017, published 2020).

Columns and labels:
in vitro = conditions: mouse, hepatocytes
[1] = system: healthy keratinocyte cells (HaCaT); experiment: CellTiter-Blue cell viability, HaCaT; type: cell-based; conditions: Homo sapiens, non-cancerous, 72 hours
Protocol: (§1) The anti-cancer efficacy of exemplary compounds of the application were assessed in vitro against different cancer cell lines. Cell viability was examined following treatment at various concentrations of inhibitor (0.097656-50 μM) using a CellTiter-Blue® cell viability assay. 1×10^4 cells/well were plated in 96-well assay plates in culture medium. All cells were grown in DMEM, IMDM and RPMI-1640 supplemented with 10% fetal bovine serum (FBS). In some instances, FBS was removed for periods ranging from 16-24 hours, and re-introduced with test compound addition. After 24 hrs, test compounds and vehicle controls were added to appropriate wells such that the final volume was 100 μl in each well. The cells were cultured for the desired test exposure period (72 hours) at 37° C. and 5% CO2. The assay plates were removed from 3° C. incubator and 20 μl/well of CellTiter-Blue® Reagent was added. The plates were incubated using standard cell culture conditions for 1-4 hours. Afterwards, the plates were shaken for 10 seconds and florescence was recorded at 560/590 nm using a Cytation 3 spectrophotometer. IC50 values were determined using non-linear regression analysis with GraphPad Prism 6.0 (GraphPad Software Inc.).

MOLM13 = experiment: CellTiter-Blue cell viability, MOLM13; type: cell-based; conditions: Homo sapiens, MOLM-13; AML cell line, 72 hours
Protocol: as §1

[2] = system: healthy human lung cells (MRC9); experiment: CellTiter-Blue cell viability, MRC9; type: cell-based; conditions: non-cancerous, 72 hours
Protocol: as §1

MV4-11 = experiment: CellTiter-Blue cell viability, MV4-11; type: cell-based; conditions: for IC50: Homo sapiens, MV4-11, AML cell line, 72 hours
Protocol: as §1

[3] = system: primary human fibroblast cells (PHF); experiment: CellTiter-Blue cell viability, PHF; type: cell-based; conditions: non-cancerous, 72 hours
Protocol: as §1

D425 = experiment: Cell viability, medulloblastoma D425; type: cell-based; conditions: medulloblastoma cell line
Protocol: as §1, with “Inc.). […]” for “Inc.).”

D458 = experiment: Cell viability, medulloblastoma D458; type: cell-based; conditions: medulloblastoma cell line
Protocol: as §1, with “Inc.). […]” for “Inc.).”

ATCC3034 = experiment: Cell viability, medulloblastoma ATCC3034; type: cell-based; conditions: medulloblastoma cell line
Protocol: as §1, with “Inc.). […]” for “Inc.).”

[4] = Intrinsic clearance in mouse hepatocytes
GBM8 = experiment: Proliferation of patient derived GBM BTIC line GBM8; type: cell-based; conditions: 62.5, 125, 250 nM, four days
Protocol: (§2) Glioblastoma (GBM) tumor cells with stem-cell properties termed brain tumor initiating cells (BTICs,) are enriched using serum-free culture. Effects of select exemplary compounds were tested on cell proliferation in patient derived GBM BTIC lines: GBM8 and BT428. GBM BTICs were cultured in NeuroCult™ NS-A Proliferation Medium (STEMcell Technologies) supplemented with epidermal growth factor (20 ng/mL), basic fibroblast growth factor (10 ng/mL) and 2 ug/mL of Heparin. The cells were dissociated into single cells and viable cells sorted into 96 well plate at a density of 1000 cells/well. The cells were then treated with varying doses of selected compounds (250 nM, 125 nM, 62.5 nM) with three technical replicates per dilution. DMSO was used as control. Four days following the addition of compounds, the proliferative capacity of GBM BTICs was assessed using PrestoBlue Cell Viability reagent (Invitrogen).

[5] = system: UFMylation pathway (UBA5, UFC1, UFM1, c-Myc) in MV4-11 cells; experiment: Western blot of UFMylation pathway in MV4-11 cells; type: cell-based; conditions: 8 hours, 0 to 1 μM
Protocol: Post-treatment (8 hours) of MV4-11 cells with I-1 test compound at 1, 0.5, 0.25, 0.1 and 0 μM concentrations, all cells were lysed with radioimmunoprecipitation assay (RIPA) buffer: 20 mM Tris pH 7.4, 150 mM NaCl, 0.5% deoxycholate, 1% Triton X-100, 0.1% sodium dodecyl sulfate (SDS). Total protein was measured using BCA assay (Sigma). In each assay, clarified protein were resolved on a 4%-15% polyacrylamideSDS gel and transferred to a PVDF membrane (Bio-Rad). The membranes were blocked with 5% solution of skim milk powder in TBST and incubated for at least 1 hour followed by an overnight incubation at 4° C. in primary antibody (1:1000 dilution). Blots were probed with antibodies against UBA5, UFM1, UFC1, c-Myc, and beta-actin was used as a loading control (Santa Cruz Biotechnology catalog # sc-835). The PVDF membrane then washed with TBST (3 times for 5 minutes). A horseradish peroxides (HRP)-conjugated goat anti-mouse IgG secondary antibodies (Cell signaling Catalog #7076S) was applied to the membrane (1:5000 dilution) and incubated for 1 hour at room temperature. The blots were then rinsed again 3 times in TBST for 10 minutes. Bands were visualized using clarity western ECL substrate luminal/enhancer solution and peroxide solution 1:1 ratio for HRP secondary antibody, according to the manufacturer's instructions (Bio-Rad) and analyzed using Image lab software (Bio-Rad).

BT428 = experiment: Proliferation of patient derived GBM BTIC line BT428; type: cell-based; conditions: 62.5, 125, 250 nM, four days
Protocol: as §2

| IC50 (MOLM13) | IC50 (MV4-11) | SMILES | IC50 [2] | IC50 [3] | also measured |
| --- | --- | --- | --- | --- | --- |
| – | – | COc1ccc(NS(=O)(=O)c2c(F)c(F)c(F)c(F)c2F)cc1F [Batabulin] | – | – | half-life at 1 μM (in vitro): 0.298 h |
| > 25000 nM | > 25000 nM | O=S(=O)(c1ccc(F)cc1)N(Cc1ccc(F)cc1)C1CC1 [Comparative Example 3, N-cyclopropyl-4-fluoro-N-(4-fluorobenzyl)benzenesulfonamide, reference compound] | > 25000 nM | – | IC50 [1]: > 25000 nM; activity in AML cells (MV4-11; AML cells (MV4-11 and MOLM13)): inactive |
| 1600 nM | 850 nM | O=S(=O)(c1c(F)c(F)c(F)c(F)c1F)N(Cc1ccc(F)cc1)CC1CC1 [Compound I-2, N-(cyclopropylmethyl)-2,3,4,5,6-pentafluoro-N-(4-fluorobenzyl)benzenesulfonamide] | 7700 nM | 2900 nM | – |
| 3500 nM | 1370 nM | O=S(=O)(c1c(F)c(F)c(F)c(F)c1F)N(Cc1ccc(Cl)cc1)C1CC1 [Compound I-7, N-(4-chlorobenzyl)-N-cyclopropyl-2,3,4,5,6-pentafluorobenzenesulfonamide] | 16400 nM | 2700 nM | IC50 (D425): 1400 nM; IC50 (D458): 2000 nM; IC50 (ATCC3034): 300 nM; half-life at 1 μM [4]: 1.92 h |
| 730 nM | 930 nM | COc1ccc(CN(C2CC2)S(=O)(=O)c2c(F)c(F)c(F)c(F)c2F)cc1 [Compound I-8, N-cyclopropyl-2,3,4,5,6-pentafluoro-N-(4-methoxybenzyl)benzenesulfonamide] | – | – | IC50 [1]: 17400 nM |
| 3070 nM | 1350 nM | O=S(=O)(c1c(F)c(F)c(F)c(F)c1F)N(Cc1ccc(F)nc1)C1CC1 [Compound I-12, N-cyclopropyl-2,3,4,5,6-pentafluoro-N-((6-fluoropyridin-3-yl)methyl)benzenesulfonamide] | 18000 nM | 5000 nM | – |
| 1100 nM | 1700 nM | O=S(=O)(c1c(F)c(F)c(F)c(F)c1F)N(Cc1ccc(F)cn1)C1CC1 [Compound I-13, N-cyclopropyl-2,3,4,5,6-pentafluoro-N-((5-fluoropyridin-2-yl)methyl)benzenesulfonamide] | 25000 nM | 5500 nM | – |
| 3500 nM | 1200 nM | CC(C)N(Cc1ccc(F)cc1)S(=O)(=O)c1c(F)c(F)c(F)c(F)c1F [Compound I-16, 2,3,4,5,6-pentafluoro-N-(4-fluorobenzyl)-N-isopropylbenzenesulfonamide] | 25000 nM | 7200 nM | – |
| 2580 nM | 990 nM | N#Cc1ccc(CN(C2CC2)S(=O)(=O)c2c(F)c(F)c(F)c(F)c2F)cc1 [Compound I-23, N-(4-cyanobenzyl)-N-cyclopropyl-2,3,4,5,6-pentafluorobenzenesulfonamide] | 7800 nM | 5500 nM | – |
| 1050 nM | 950 nM | O=S(=O)(c1c(F)c(F)c(F)c(F)c1F)N(Cc1ccc(C(F)(F)F)cc1)C1CC1 [Compound I-25, N-cyclopropyl-2,3,4,5,6-pentafluoro-N-(4-(trifluoromethyl)benzyl)benzenesulfonamide] | – | 3000 nM | – |
| 1900 nM | 1200 nM | O=C(O)c1ccc(CN(C2CC2)S(=O)(=O)c2c(F)c(F)c(F)c(F)c2F)cc1 [Compound I-26, 4-(((N-cyclopropyl-2,3,4,5,6-pentafluorophenyl)sulfonamido)methyl)benzoic acid] | – | 6500 nM | – |
| 6810 nM | 1520 nM | O=S(=O)(c1c(F)c(F)c(F)c(F)c1F)N(Cc1c(F)cc(F)cc1F)C1CC1 [Compound I-36, N-cyclopropyl-2,3,4,5,6-pentafluoro-N-(2,4,6-trifluorobenzyl)benzenesulfonamide] | 26000 nM | 8100 nM | – |
| 2890 nM | 1690 nM | O=S(=O)(c1c(F)c(F)c(F)c(F)c1F)N(Cc1ncc(F)cc1F)C1CC1 [Compound I-37, N-cyclopropyl-N-((3,5-difluoropyridin-2-yl)methyl)-2,3,4,5,6-pentafluorobenzenesulfonamide] | 22000 nM | 8700 nM | effect on cell proliferation in GBM8 (GBM8): show potency |
| 3200 nM | 330 nM | O=S(=O)(c1c(F)c(F)c(F)c(F)c1F)N(Cc1ccccc1F)C1CC1 [Compound I-40, N-cyclopropyl-2,3,4,5,6-pentafluoro-N-(2-fluorobenzyl)benzenesulfonamide] | – | – | reduction of UBA5 levels and UFC1-UFM1 conjugate levels [5]: comparable activity to I-1 |
| 4100 nM | 1670 nM | O=S(=O)(c1c(F)c(F)c(F)c(F)c1F)N(Cc1ncccc1C(F)(F)F)C1CC1 [Compound I-43, N-cyclopropyl-2,3,4,5,6-pentafluoro-N-((3-(trifluoromethyl)pyridin-2-yl)methyl)benzenesulfonamide] | 8400 nM | – | effect on cell proliferation in BT428 (BT428): show potency |
| 8400 nM | 1140 nM | O=S(=O)(c1c(F)c(F)c(F)c(F)c1F)N(Cc1c(F)cc(F)cc1F)C1CCC1 [Compound I-47, N-cyclobutyl-2,3,4,5,6-pentafluoro-N-(2,4,6-trifluorobenzyl)benzenesulfonamide] | 15700 nM | 3700 nM | – |
| 4110 nM | 1190 nM | CC(C)N(Cc1ccccc1F)S(=O)(=O)c1c(F)c(F)c(F)c(F)c1F [Compound I-48] | 15000 nM | 3000 nM | – |
| 4200 nM | 1010 nM | CC(C)N(Cc1ccc(F)cc1F)S(=O)(=O)c1c(F)c(F)c(F)c(F)c1F [Compound I-49, N-(2,4-difluorobenzyl)-2,3,4,5,6-pentafluoro-N-isopropylbenzenesulfonamide] | 16700 nM | 4500 nM | – |
| 1700 nM | 700 nM | CC(C)(C)C(=O)N(Cc1ccc(F)cc1)S(=O)(=O)c1c(F)c(F)c(F)c(F)c1F [Compound I-54, N-(4-fluorobenzyl)-N-((perfluorophenyl)sulfonyl)pivalamide] | – | 3000 nM | – |
| 730 nM | 430 nM | O=S(=O)(c1c(F)c(F)c(F)c(F)c1F)N(Cc1ccc(F)cc1)C1CCC1 [Compound I-55, N-cyclobutyl-2,3,4,5,6-pentafluoro-N-(4-fluorobenzyl)benzenesulfonamide] | – | 2500 nM | reduction of UBA5 levels and UFC1-UFM1 conjugate levels [5]: comparable activity to I-1 |
